Ends that are not written are not given here. Peptide text beside a SMILES is read from it. * marks the point of attachment. Biotin = O=C1N[C@H]2[C@H](CS[C@H]2CCCCC(=O)*)N1
What follows are molecules tested against T1, PDZ protein (GST-PDZ fusion) (Homo sapiens, UniProt Q9UDY2) (assay: G' assay (10 uM PL peptide), results of TABLE 7 and TABLE 12). Conditions: PDZ ZO-2, PDZ Domain 1.
T1 construct: made in house; host or cells: E. coli (DH5alpha, BL21 or JM109)
T1 sequence (Q9UDY2 1-1190): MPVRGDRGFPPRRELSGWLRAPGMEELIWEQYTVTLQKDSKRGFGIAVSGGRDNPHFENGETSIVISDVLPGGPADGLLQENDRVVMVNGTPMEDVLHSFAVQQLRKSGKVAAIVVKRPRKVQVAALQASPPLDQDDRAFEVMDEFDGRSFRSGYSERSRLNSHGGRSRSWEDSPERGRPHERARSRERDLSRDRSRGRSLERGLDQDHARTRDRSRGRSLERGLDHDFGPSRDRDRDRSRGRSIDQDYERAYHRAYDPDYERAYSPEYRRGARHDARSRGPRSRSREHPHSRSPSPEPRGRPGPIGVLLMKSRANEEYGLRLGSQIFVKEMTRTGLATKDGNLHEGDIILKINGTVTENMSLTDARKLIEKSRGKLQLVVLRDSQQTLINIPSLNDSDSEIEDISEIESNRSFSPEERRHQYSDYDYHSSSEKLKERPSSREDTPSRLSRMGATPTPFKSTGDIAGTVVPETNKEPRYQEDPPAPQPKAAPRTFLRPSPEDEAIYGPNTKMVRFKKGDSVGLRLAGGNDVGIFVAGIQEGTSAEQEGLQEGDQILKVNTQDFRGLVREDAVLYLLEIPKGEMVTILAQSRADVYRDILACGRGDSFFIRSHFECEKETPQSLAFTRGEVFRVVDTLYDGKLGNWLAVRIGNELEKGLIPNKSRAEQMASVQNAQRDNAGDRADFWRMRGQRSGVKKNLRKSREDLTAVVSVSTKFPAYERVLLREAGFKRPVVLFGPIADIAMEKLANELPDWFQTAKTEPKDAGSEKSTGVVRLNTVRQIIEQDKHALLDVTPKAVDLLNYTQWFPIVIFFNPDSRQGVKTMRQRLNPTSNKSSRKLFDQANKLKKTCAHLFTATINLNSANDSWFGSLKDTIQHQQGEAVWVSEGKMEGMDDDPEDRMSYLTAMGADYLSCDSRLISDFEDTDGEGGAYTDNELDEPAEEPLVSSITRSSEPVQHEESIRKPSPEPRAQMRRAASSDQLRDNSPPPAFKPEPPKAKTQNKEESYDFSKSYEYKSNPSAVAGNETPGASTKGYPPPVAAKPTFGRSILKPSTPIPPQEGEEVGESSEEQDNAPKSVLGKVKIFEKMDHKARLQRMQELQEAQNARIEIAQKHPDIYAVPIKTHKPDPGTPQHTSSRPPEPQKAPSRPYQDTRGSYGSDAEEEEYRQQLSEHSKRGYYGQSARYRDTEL
Format: binding
Outline: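 Same steps as the G-zero format, apart from a peptide concentration of 10 uM in place of 20 uM in step 2. Amino-terminally biotinylated PL peptides bind GST-PDZ fusions, and retained peptide is quantified by 450 nm absorbance.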
For `CC(C)C[C@H](NC(=O)[C@H](C)NC(=O)[C@@H](NC(=O)[C@H](CCC(=O)O)NC(=O)[C@H](CCCNC(=N)N)NC(=O)[C@H](CCCNC(=N)N)NC(=O)CNC(=O)[C@H](CCC(N)=O)NC(=O)[C@H](CC(C)C)NC(=O)[C@H](CCCNC(=N)N)NC(=O)CNC(=O)CNC(=O)[C@H](CCCNC(=N)N)NC(=O)[C@H](C)NC(=O)[C@H](CO)NC(=O)[C@H](CCCNC(=N)N)NC(=O)CNC(=O)CNC(=O)[C@H](C)NC(=O)[C@H](C)NC(=O)CCCC[C@@H]1SC[C@@H]2NC(=O)N[C@@H]21)[C@@H](C)O)C(=O)O` [HPV E6 33 (modified)] (Biotin-AAGGRSARGGRLQGRRETAL-OH; C-terminus assumed), the Classification was 1 (A450 nm 0-1).
In the case of “ELLQFCRTPNPALKNGQYWV (Biotin-ELLQFCRTPNPALKNGQYWV)”, the Classification is reported as 5 (A450 nm of 4 more than 2× repeated).
With `CC(C)C[C@H](NC(=O)[C@H](CCCNC(=N)N)NC(=O)CNC(=O)CNC(=O)[C@H](CCCNC(=N)N)NC(=O)[C@H](C)NC(=O)[C@@H]1CCCN1C(=O)[C@H](CCCNC(=N)N)NC(=O)CNC(=O)CNC(=O)[C@@H](NC(=O)[C@H](C)NC(=O)CCCC[C@@H]1SC[C@@H]2NC(=O)N[C@@H]21)C(C)C)C(=O)N[C@@H](CCC(N)=O)C(=O)NCC(=O)N[C@@H](CCCNC(=N)N)C(=O)N[C@@H](CCCNC(=N)N)C(=O)N[C@@H](CCC(N)=O)C(=O)N[C@H](C(=O)N[C@@H](CCC(N)=O)C(=O)N[C@H](C(=O)O)C(C)C)[C@@H](C)O` [HPV E6 58 (modified)] (Biotin-AVGGRPARGGRLQGRRQTQV-OH; C-terminus assumed) the Classification was 3 (A450 nm 2-3).
With `CSCC[C@H](NC(=O)[C@H](C)NC(=O)[C@H](CCCNC(=N)N)NC(=O)CNC(=O)[C@@H](NC(=O)[C@H](Cc1c[nH]c2ccccc12)NC(=O)[C@H](CCCNC(=N)N)NC(=O)CNC(=O)CCCC[C@@H]1SC[C@@H]2NC(=O)N[C@@H]21)[C@@H](C)O)C(=O)N[C@@H](CO)C(=O)N[C@@H](C)C(=O)N[C@@H](Cc1c[nH]c2ccccc12)C(=O)N[C@@H](CCCCN)C(=O)N1CCC[C@H]1C(=O)N[C@H](C(=O)N[C@@H](CCCNC(=N)N)C(=O)N[C@@H](CCCNC(=N)N)C(=O)N[C@@H](CCC(=O)O)C(=O)N[C@H](C(=O)N[C@@H](CCC(=O)O)C(=O)N[C@H](C(=O)O)C(C)C)[C@@H](C)O)[C@@H](C)O` [HPV E6 #35 (modified)] (Biotin-GRWTGRAMSAWKPTRRETEV-OH; C-terminus assumed) the Classification was 2 (A450 nm 1-2).
For `CC[C@H](C)[C@H](NC(=O)[C@H](CC(=O)O)NC(=O)[C@H](CCC(=O)O)NC(=O)[C@H](CCCNC(=N)N)NC(=O)[C@@H](NC(=O)CCCC[C@@H]1SC[C@@H]2NC(=O)N[C@@H]21)[C@@H](C)O)C(=O)N[C@@H](Cc1ccc(O)cc1)C(=O)N[C@H](C(=O)N[C@@H](CC(N)=O)C(=O)N[C@@H](Cc1ccc(O)cc1)C(=O)N1CCC[C@H]1C(=O)N[C@H](C(=O)N[C@@H](Cc1ccccc1)C(=O)N[C@@H](CO)C(=O)N[C@@H](CCCNC(=N)N)C(=O)N[C@@H](CCCNC(=N)N)C(=O)N1CCC[C@H]1C(=O)N[C@@H](CCCCN)C(=O)N[C@H](C(=O)N[C@@H](CCCNC(=N)N)C(=O)N[C@H](C(=O)O)C(C)C)[C@@H](C)O)[C@@H](C)O)C(C)C` [DNAM-1] (Biotin-TREDIYVNYPTFSRRPKTRV-OH; C-terminus assumed), the Classification was 3 (A450 nm 2-3).
With “PPATPSPRLALPAHHNATRL (Biotin-PPATPSPRLALPAHHNATRL) [Na+/Pi cotransporter 2]” the Classification was 1 (A450 nm 0-1).
With “GPVPGEPAKPKTSAHHATFV (Biotin-GPVPGEPAKPKTSAHHATFV)” the Classification was 1 (A450 nm 0-1).

Same assay, conditions: PDZ ZO-2, PDZ Domain 1; PL peptide 10 uM
With `CC[C@H](C)[C@H](NC(=O)[C@H](CCCCN)NC(=O)[C@@H](NC(=O)[C@H](CO)NC(=O)[C@@H]1CCCN1C(=O)[C@H](Cc1ccccc1)NC(=O)[C@@H](NC(=O)[C@@H](NC(=O)[C@H](CCCNC(=N)N)NC(=O)[C@H](CCC(=O)O)NC(=O)[C@H](CC(C)C)NC(=O)[C@H](CC(C)C)NC(=O)[C@H](CC(C)C)NC(=O)[C@@H](NC(=O)CNC(=O)[C@@H](NC(=O)CCCC[C@@H]1SC[C@@H]2NC(=O)N[C@@H]21)C(C)C)[C@@H](C)O)C(C)C)[C@@H](C)CC)C(C)C)C(=O)N[C@@H](C)C(=O)N[C@H](C(=O)N[C@@H](CC(C)C)C(=O)N[C@H](C(=O)O)C(C)C)[C@@H](C)O` [Adenovirus E4 Type9] the Classification was 3 (A450 nm 2-3).

Same assay, conditions: PDZ ZO-2, PDZ Domain 2
For “ELLQFCRTPNPALKNGQYWV (Biotin-ELLQFCRTPNPALKNGQYWV)”, the Classification was 1 (A450 nm 0-1).
In the case of “A2AA_HUMAN (modified) (Biotin-HDFRRAFKKILARGDRKRIV; not fully specified)”, the Classification is reported as 2 (A450 nm 1-2).

Source: US20050282743A1, “Molecular interactions in cells” (Arbor Vita Corporation, priority 2001, published 2005)
